# Where “and” joins values, the source holds several entries; their conditions need not be identical. Equal values may be shown once.
# Legend:
# [1] = system: Cos-7 cells; test: LDH cytotoxicity assay on Cos-7 cells; assay type: cell-based; conditions: 24 h
# Description: (§1) To assess the cytotoxicity properties of BPPB, the lactate dehydrogenase (LDH) cytotoxicity assay (Abcam, Cat#ab102526) was performed, following manufacturer’s protocol, as previously described. This time, the increasing concentrations of BPPB were in the range 0.4–85.3 µM.
# (§2) In this study, the cytotoxicity profile of BPPB was assessed in both immortalized human liver cells (HepG2) cells, as in our previous works, and in transformed African green monkey kidney fibroblast cells (Cos-7), as reported in a recent paper. Specifically, we evaluated the cytotoxicity of BPPB by carrying out both the MTT proliferation assay and the lactate dehydrogenase (LHD) cytotoxicity assay, which measures the LDH activity as an indicator of cell death. Both cell lines were exposed for 24 h to increasing concentrations of BPPB (0.4–85.3 µM). Growth inhibition/death were determined by the MTT test, while cell cytotoxicity was determined by LDH assay, with respect to untreated control cells. Results are reported as bar graphs in Figure 8 and as dispersion graphs in Figures S13 and S14 in Supplementary Materials (Section S2).
# [2] = system: HTLA-230 human stage-IV NB cells; test: Cell viability assay (CellTiter 96 AQueous One Solution) on HTLA-230 NB cells; assay type: cell-based; conditions: for viability at 0.5 µM: series 0.5–50 µM
# Text: HTLA-230 human stage-IV NB cells were kindly provided by Dr. L. Raffaghello (G. Gaslini Institute, Genoa, Italy). The HTLA-ER cells were selected by treating HTLA-230 parental cells for six months with increasing concentrations of etoposide, as previously reported. Both cell populations were maintained in RPMI 1640 medium (Euroclone Spa, Pavia, Italy) supplemented with 10% fetal bovine serum (FBS, Euroclone Spa, Pavia, Italy), 1% L-glutamine (Euroclone Spa, Pavia, Italy), and 1% Penicillin/Streptomicin (Euroclone Spa, Pavia, Italy) and grown in standard conditions (37 °C humidified incubator with 5% CO2).
# To determine the cytotoxic effects of BPPB, in vitro time- and dose-dependent experiments were carried out. Cells were first treated for 24, 48, and 72 h, with increasing concentrations (0.5–50 µM) of the compound. In a subsequent series of the experiments, cells were treated for 24, 48, and 72 h with increasing concentration of BPPB in the range of 0.1–2 µM. […] Cell cultures were carefully monitored before and during the experiments to ensure optimal cell density.
# Cell viability was determined by using the CellTiter 96® AQueous One Solution Cell Proliferation Assay (Promega, Madison, WI, USA), as previously described. Briefly, cells (10,000 cells/well) were seeded into 96-well plates (Corning Incorporated, Corning, NY, USA) and then treated. Next, cells were incubated with 20 µL of CellTiter, and the absorbance at 490 nm was recorded using a microplate reader (EL-808, BIO-TEK Instruments Inc., Winooski, VT, USA). IC50 was evaluated by GraphPad Prism 5.4.2 Software (GraphPad Software, Boston, MA, USA).
# Results are expressed as the means ± S.D. of at least four independent experiments in which six different wells were analyzed every time for each experimental condition. The statistical significance of differences was determined by two-way analysis of variances (ANOVA) followed by Tukey’s multicomparison test using GraphPad Prism 8.0 (GraphPad Software v8.0, San Diego, CA, USA); p < 0.05 was considered statistically significant. Asterisks or other indicators (see Figures captions) indicate the following p-value ranges: p > 0.05 no symbols, * = p < 0.05, ** = p < 0.01, *** = p < 0.001, **** = p < 0.0001.
# [3] = MTT cytotoxicity assay on HepG2 cells; assay type: cell-based, human; conditions: human
# Description: (§3) To assess the cytotoxicity properties of BPPB, the MTT (3-(4,5-dimethylthiazol-2-yl)-2,5-diphenyltetrazolium bromide) cell proliferation assay (Abcam, Prodotti Gianni s.r.l., Milano, Italy, Cat#ab2011091) was performed, following the manufacturer’s protocol, as previously reported. This time, the increasing concentrations of BPPB were in the range of 0.4–85.3 µM. The cell survival rate, expressed as cell viability percentage (%), was evaluated based on the experimental outputs of treated groups vs. the untreated groups (CTR) and was calculated as follows: cell viability (%) = (OD treated cells − OD blank)/(OD untreated cells − OD blank) × 100%.
# as §2
# [4] = system: HepG2 cells; test: MTT cytotoxicity assay on HepG2 cells; assay type: cell-based, human; conditions: for IC50: MTT, concentration range 0.4–85.3 µM
# Description: as §3, §2
# [5] = system: HepG2 cells; set-up: method as in earlier work; conditions: MTT test; Table S1, previously assessed characteristics; cited from earlier work
# [6] = system: HepG2 cells; test: LDH cytotoxicity assay on HepG2 cells; assay type: cell-based; conditions: LDH test; 24 h
# Description: as §1, §2
# [7] = MTT cytotoxicity assay on Cos-7 cells; assay type: cell-based, African green monkey; conditions: African green monkey
# Description: as §3, §2
# [8] = system: Cos-7 cells; test: MTT cytotoxicity assay on Cos-7 cells; assay type: cell-based, African green monkey; conditions: for IC50: MTT, concentration range 0.4–85.3 µM
# Description: as §3, §2
compound,measurement,setting,value
"c1ccc([P+](CCCCCCCCCCCC[P+](c2ccccc2)(c2ccccc2)c2ccccc2)(c2ccccc2)c2ccccc2)cc1 [BPPB, 1,1-(1,12-dodecanediyl)bis [1,1, 1]-triphenylphosphonium di-bromide]",LDH release Cos-7 (optical density),[1]; 4.3 µM,0.30 OD
same,LDH release Cos-7 (optical density),[1]; 8.5 µM,0.80 OD
same,Concentrations with a safety profile toward Cos-7,[1]; LDH test,≤ 4.3 µM
same,Cell viability HTLA-230,"[2]; 24 h, concentration at which hemolysis was inexistent (concentration not stated)",18.2%
same,IC50,"[2]; 24 h exposure, refined concentration range 0.1–2 µM",240 nM and 238 nM
same,"Viable cells, both NB cell populations","[2]; 24 h treatment, HTLA-230 and HTLA-ER, concentrations leaving more than 98% of RBCs alive",14–18%
same,IC50,"[2]; Homo sapiens, HTLA-230, 24 h, 24 h exposure, concentration range 0.5–50 µM",738 ± 546 nM
same,IC50,"[2]; Homo sapiens, HTLA-230, 24 h, 24 h exposure, refined concentration range 0.1–2 µM",200 nM
same,IC50,"[2]; Homo sapiens, HTLA-230, 48 h, 48 h exposure, concentration range 0.5–50 µM",590 ± 445 nM
same,IC50,"[2]; Homo sapiens, HTLA-230, 48 h, 48 h exposure, refined concentration range 0.1–2 µM",196 ± 21.1 nM
same,IC50,"[2]; Homo sapiens, HTLA-230, 72 h, 72 h exposure, concentration range 0.5–50 µM",203 ± 178 nM
same,IC50,"[2]; Homo sapiens, HTLA-230, 72 h, 72 h exposure, refined concentration range 0.1–2 µM",228 ± 17.6 nM
same,viability at 0.25 µM,"[2]; Homo sapiens, HTLA-230, 0.25 µM, 24 h, series 0.1–2 µM",53.1%
same,viability at 0.5 µM,"[2]; Homo sapiens, HTLA-230, 24 h",46%
same,viability at 0.5 µM,"[2]; Homo sapiens, HTLA-230, 48 h",41.6%
same,viability at 0.5 µM,"[2]; Homo sapiens, HTLA-230, 72 h",21.7%
same,viability at 5 µM,"[2]; Homo sapiens, HTLA-230, concentrations ≥ 5 µM, 24, 48, 72 h",16 to 18%
same,"Selectivity indexes (SIs), all non-tumoral cells vs both NB cell populations","[2]; after 24 h treatments, MRC-5, Cos-7, HepG2, RBCs vs HTLA-230 and HTLA-ER",2.5–74.6
same,viability at 24 h,"[3]; HepG2 cells, 8.5 µM and 4.3 µM, which value belongs to which concentration is not stated, read-out: Cell viability HepG2 (MTT)",64.5%
same,selectivity ratio at 24 h,[3]; read-out: Selectivity index (SI) = IC50 HepG2 / IC50 HTLA-ER,8.7
same,Selectivity index (SI) = IC50 HepG2 / IC50 HTLA-230,[4]; 24 h,40.6 and 40.63
same,Selectivity index (SI) = IC50 HepG2 / IC50 HTLA-ER,[4]; 24 h,8.68
same,IC50,[4]; 24 h,9.64 ± 1.31 µM
same,IC50,"[4]; Homo sapiens, HepG2, 24 h",9.6 µM
same,Concentrations with a safety profile toward HepG2,"[4]; MTT test, 24 h",≤ 8.5 µM
same,IC50 HepG2 cell,[5],11.31 ± 1.54 µg/mL
same,Concentrations with a safety profile toward HepG2,[6],≤ 8.5 µM
same,"viability at 24 h, 4.3 µM","[7]; Cos-7 cells, 4.3 µM, read-out: Cell viability Cos-7 (MTT)",64.2%
same,"viability at 24 h, 8.5 µM","[7]; Cos-7 cells, 8.5 µM, read-out: Cell viability Cos-7 (MTT)",27.4%
same,selectivity ratio at 24 h,[7]; read-out: Selectivity index (SI) = IC50 Cos-7 / IC50 HTLA-ER,4.42
same,Selectivity index (SI) = IC50 Cos-7 / IC50 HTLA-230,[8]; 24 h,20.72
same,IC50,[8]; 24 h,4.91 ± 0.81 µM
same,IC50,"[8]; Chlorocebus sabaeus, COS-7, 24 h",4.9 µM
same,Concentrations with a safety profile toward Cos-7,"[8]; MTT test, 24 h",≤ 4.3 µM
